According to patent EP0367747A2, “Dideoxy-L-arabinitol derivatives as antiviral compounds” (G.D. Searle & Co., priority 1988, dated 1990):
Marks after values point to notes of the source that are not given here.

What was measured:
visna virus = experiment: Inhibition of visna virus in vitro (plaque reduction assay / 96 well plate assay) in SCP cells; format: cell-based; set-up: key to Antiviral Activity: A = active compound; I = inactive; conditions: for EC50: inhibition of visna virus, read-out: EC₅₀; for Antiviral Activity: Table 4
Procedure: Various compounds as prepared above were tested for inhibition of visna virus in vitro in a plaque reduction assay as follows:
Sheep choroid plexus(SCP) cells were obtained from American Type Culture Collection (ATCC) catalogue number CRL 1700 and were routinely passaged in vitro in Dulbecco's Modified Eagles (DME) medium supplemented with 20% fetal bovine serum (FBS). SCP cells were passaged once per week at a 1:2 or 1:3 split ratio. Visna was titrated by plaque assay in six-well plates. Virus pools were stored at -70°C.
(§1) SCP cells were cultured in 6-well plates to confluence. Wells were washed two times with serum free Minimal Essential Medium (MEM) to remove FBS. 0.2ml of virus was added per well in MEM supplemented with 4mM glutamine and gentamycin. After 1 hour adsorption, the virus was aspirated from each well. The appropriate concentration of each compound in 5 ml of Medium 199 (M-199) supplemented with 2% lamb serum, 4mM glutamine, 0.5% agarose and gentamycin was added to each well. Cultures were incubated at 37°C in a humidified 5% CO₂ incubator for 3-4 weeks. To terminate the test: cultures were fixed in 10% formalin, the agar removed, the monolayers stained with 1% crystal violet and plaques counted. Each compound concentration was run in triplicate. […] 0 is no toxicity observed while 4 is total lysing of the cell monolayer.
The 96 well plate assay was performed similarly to the plaque assay above with modifications. SCP cells were seeded at 1 x 10⁴ cells per well in 0.1 ml DME medium. When confluent, the wells were washed with serum free MEM and 25ul of virus added in M-199 supplemented with 2% lamb serum. After 1 hour, 75uL of medium containing test compound was added to each well containing virus. After 2-3 weeks incubation the cytopathic effect of the virus was determined by staining with a vital stain. Cell viability was measured by determining stain density using a 96 well plate reader.

Yeast alpha-glucosidase = biological target: T1, Yeast alpha-glucosidase (Saccharomyces cerevisiae, UniProt P53341); experiment: Alpha-glucosidase inhibition assay, pH 7.4 (p-nitrophenol release); format: biochemical; conditions: for inhibition at 1000 µM / inhibition at 100 µM: Table 5, read-out: α-Glucosidase % Inhibition; for inhibition at 1000 µM: at 1.0 mM
T1 construct: purchased Sigma
T1 sequence (P53341 whole entry): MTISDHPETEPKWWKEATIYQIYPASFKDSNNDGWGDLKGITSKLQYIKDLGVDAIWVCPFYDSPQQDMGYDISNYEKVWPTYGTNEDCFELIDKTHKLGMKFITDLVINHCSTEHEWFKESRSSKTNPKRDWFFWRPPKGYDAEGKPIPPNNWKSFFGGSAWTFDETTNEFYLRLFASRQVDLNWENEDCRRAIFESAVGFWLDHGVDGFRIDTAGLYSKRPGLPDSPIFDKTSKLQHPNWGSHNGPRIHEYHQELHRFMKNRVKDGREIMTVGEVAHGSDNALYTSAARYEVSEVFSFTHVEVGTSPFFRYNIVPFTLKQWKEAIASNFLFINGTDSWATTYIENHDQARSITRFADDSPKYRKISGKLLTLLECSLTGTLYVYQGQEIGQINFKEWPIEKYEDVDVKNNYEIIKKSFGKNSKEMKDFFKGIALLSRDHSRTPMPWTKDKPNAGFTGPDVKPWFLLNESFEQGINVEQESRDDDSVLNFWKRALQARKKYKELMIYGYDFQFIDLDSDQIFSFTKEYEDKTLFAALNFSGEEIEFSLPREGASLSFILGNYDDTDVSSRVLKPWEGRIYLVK
Procedure: (§2) Yeast alpha-glucosidase and almond beta-glucosidase activities were measured by a modification of the method of Evans, et al., Phytochemistry 22, 768-770 (1983). The modifications included 1) assay of activities at pH 7.4 in HEPES (N-2-hydroxyethylpiperazine-N′-2-ethanesulfonic acid) buffer, 2) measurement in 96 well microtiter plates and 3) inclusion of 10% DMSO in control and test samples. The release of p-nitrophenol from the substrate p-nitrophenylglycoside was measured spectrophotometrically in the presence and absence of test compound. Each assay included a known inhibitor of the enzyme as a standard. IC₅₀ values were determined for compounds which inhibited the enzymes more than 50% at a 1 millimolar concentration. To 100 µl 50 mM HEPES buffer, pH 7.4, in a microtiter plate, add 20 µl test compound in DMSO (DMSO alone in control), 40 µl (0.013 units) yeast alpha-glucosidase (Sigma) in HEPES buffer and pre-incubate at room temperature for 15 minutes. […] Absorption change was measured at 15 to 25 minutes (reaction was linear for at least 30 minutes). Each sample was tested in triplicate. IC₅₀ values were determined from the linear portion of the log concentration vs % inhibition curve obtained from a minimum of 3 points. Deoxynojirimycin was used as standard inhibitor.

almond beta-glucosidase [1] = experiment: Beta-glucosidase inhibition assay, pH 7.4 (p-nitrophenol release); format: biochemical; conditions: for β-Glucosidase pH 7.4 % Inhibition: Table 5
Procedure: as §2, with “µl (0.136” for “µl (0.013”, “units) beta-glucosidase” for “units) yeast alpha-glucosidase”, “(reaction is” for “(reaction was”, “points. Castanospermine” for “points. Deoxynojirimycin”

almond beta-glucosidase [2] = experiment: Beta-glucosidase inhibition assay, pH 4.8 (p-nitrophenol release); format: biochemical; conditions: for β-Glucosidase pH 4.8 % Inhibition: Table 5
Procedure: Yeast alpha-glucosidase and almond beta-glucosidase activities were measured by a modification of the method of Evans, et al., Phytochemistry 22, 768-770 (1983). The modifications included 1) assay of activities at pH 7.4 in HEPES (N-2-hydroxyethylpiperazine-N′-2-ethanesulfonic acid) buffer, 2) measurement in 96 well microtiter plates and 3) inclusion of 10% DMSO in control and test samples. The release of p-nitrophenol from the substrate p-nitrophenylglycoside was measured spectrophotometrically in the presence and absence of test compound. Each assay included a known inhibitor of the enzyme as a standard. IC₅₀ values were determined for compounds which inhibited the enzymes more than 50% at a 1 millimolar concentration. To 100 µl 50 mM sodium citrate buffer, pH 4.8, in a microtiter plate, add 15 µl test compound in DMSO (DMSO alone in control), 20 µl (.017 units) beta-glucosidase (Sigma) in citrate buffer and pre-incubate at room temperature for 15 minutes. Add 25 µl 2.50 mM p-nitrophenyl-beta-D-glucopyranside in citrate buffer, as substrate. Incubate at room temperature 20 minutes (reaction is linear for at least 30 minutes). Add 50 µl 0.4 M NaOH. Read absortion change at 405 nm in a Biotek EIA Autoreader. Each sample was tested in triplicate. IC₅₀ values were determined from the linear portion of the log concentration vs % inhibition curve obtained from a minimum of 3 points. Castanospermine was used as standard inhibitor.

[3] = tested on: Sheep choroid plexus(SCP) cells; experiment: Toxicity of compounds in control wells without virus, graded morphologically 0 to 4; format: cell-based; set-up: key: 0 = no toxicity; 4 = total cell lyses; conditions: 0 to 4 scale
Procedure: as §1
Control wells without virus were completed to determine the toxicity of compounds.

Row | SMILES | EC50 (visna virus; Visna-maedi virus) | Antiviral Activity (visna virus; 0.01 mM Concn.) | Antiviral Activity (visna virus; 0.1 mM Concn.) | Toxicity ([3]; Table 4, 0.01 mM Concn.) | Toxicity ([3]; Table 4, 0.1 mM Concn.) | Toxicity ([3]; Table 4, 1.0 mM Concn.) | inhibition at 1000 µM (Yeast alpha-glucosidase) | β-Glucosidase pH 7.4 % Inhibition (almond beta-glucosidase [1]; at 1.0 mM) | β-Glucosidase pH 4.8 % Inhibition (almond beta-glucosidase [2]; at 1.0 mM) | inhibition at 100 µM (Yeast alpha-glucosidase) | β-Glucosidase pH 7.4 % Inhibition (almond beta-glucosidase [1]; at 100 µM (***)) | β-Glucosidase pH 4.8 % Inhibition (almond beta-glucosidase [2]; at 100 µM (***)) | other results
1 | CN1CC(O)C(O)C1CO [Example 18, 1,4-(Methylimino)-1,4-dideoxy-L-arabinitol] | 100 µM | – | – | – | – | – | – | – | – | – | – | – | IC50 (Yeast alpha-glucosidase; Table 3, pH 7.4, read-out: α-glucosidase IC₅₀): 46 µM; IC50 (almond beta-glucosidase [1]; Table 3, at pH 7.4, read-out: β-glucosidase IC₅₀): 23 µM; IC50 (almond beta-glucosidase [2]; Table 3, at pH 4.8, read-out: β-glucosidase IC₅₀): 36 µM
2 | CC(=O)OC[C@H]1[C@H](OC(C)=O)[C@@H](OC(C)=O)CN1C(=O)Cc1ccccc1 [Example 28, 1,4-(Phenylacetylimino)-1,4-dideoxy-L-arabinitol, triacetate] | 1000 µM | A | A | 0 | 0 | 1 | 30% | 6% | 0% | – | – | – | Antiviral Activity (visna virus; 1.0 mM Concn.): A
3 | CCC(=O)OC[C@H]1[C@H](OC(=O)CC)[C@@H](OC(=O)CC)CN1C(=O)OCc1ccccc1 [Example 29, 1,4-(Benzyloxycarbonylimino)-1,4-dideoxy-L-arabinitol, tripropionate] | – | A | A | 0 | 0 | – | – | – | – | 41% | 5%*** | 2%*** | Antiviral Activity (visna virus; 0.001 mM Concn.): A; Toxicity ([3]; Table 4, 0.001 mM Concn.): 0
4 | CC(=O)OCCN1C[C@H](OC(C)=O)[C@@H](OC(C)=O)[C@@H]1COC(C)=O [Example 3, 1,4-([2-Acetyloxyethyl]imino)-1,4-dideoxy-L-arabinitol, triacetate] | – | – | – | – | – | – | 15% | 5% | 12% | – | – | – | inhibition at 1 µM (visna virus; Visna-maedi virus, Concentration 0.001 mM): -46%; inhibition at 10 µM (visna virus; Visna-maedi virus, Concentration 0.01 mM): -64%; inhibition at 100 µM (visna virus; Visna-maedi virus, Concentration 0.1 mM): 72%; inhibition at 1000 µM (visna virus; Visna-maedi virus, Concentration 1.0 mM): 90%; Toxicity ([3]; Concentration 0.001 mM): 0; Toxicity ([3]; Concentration 0.01 mM): 0; Toxicity ([3]; Concentration 0.1 mM): 0; Toxicity ([3]; Concentration 1.0 mM): 0
5 | CCCCN1CC(OC(=O)CCC)C(OC(=O)CCC)C1COC(=O)CCC [Example 26, 1,4-(Butylimino)-1,4-dideoxy-L-arabinitol, tributyrate] | 1000 µM | – | – | – | 0 | 2 | – | – | – | 20% | 1%*** | 1%*** | –
6 | CC(=O)OC[C@H]1[C@H](OC(C)=O)[C@@H](OC(C)=O)CN1C(=O)OCc1ccccc1 [Example 20, 1,4-(Benzyloxycarbonylimino)-1,4-dideoxy-L-arabinitol, triacetate] | 1000 µM | – | – | – | 0 | 0 | 18% | 6% | 5% | – | – | – | –
